Reference: ChEMBL document CHEMBL1158510, “Hybrid anticancer agents: isothiocyanate-progesterone conjugates as chemotherapeutic agents and insights into their cytotoxicities” (Bioorg Med Chem Lett, 2010)

What was measured:
Type in all cases: functional, cell-based
[1] = tested on: MCF7; experiment: Cytotoxicity against human MCF7 cells after 72 hrs by MTT assay; conditions: MCF7, 72 h
[2] = tested on: MDA-MB-231; experiment: Cytotoxicity against human MDA-MB-231 cells after 72 hrs by MTT assay; conditions: MDA-MB-231, 72 h
[3] = tested on: BT-20; experiment: Cytotoxicity against human BT20 cells after 72 hrs by MTT assay; conditions: BT-20, 72 h
[4] = tested on: PC-3; experiment: Cytotoxicity against human PC3 cells after 72 hrs by MTT assay; conditions: PC-3, 72 h

Question: What does the source list for `CC(=O)[C@H]1CC[C@H]2[C@@H]3CCC4=C/C(=N/NC(N)=S)CC[C@]4(C)[C@H]3CC[C@]12C`?
Answer: IC50 [1]: 20 µM; IC50 [2]: 25 µM; IC50 [3]: 5.3 µM; IC50 [4]: 16 µM
